Measured values taken from US20110039762A1, “TARGETED ANTIMICROBIAL MOIETIES” (C3 JIAN, INC., priority 2009, published 2011).
“Also recorded” adds a separate entry of the source.

What was measured:
E. coli = test: Kill or inhibit growth/proliferation; morphology, biofilm and growth disruption (Tables 5, 6); format: cell-based, Escherichia coli; set-up: key: A: Peptide aggregates; B: Less hyphal formation; Clumps; Diffuse clumps and small polyps; F: Diffuse growth; H: Thin; I: Growth inhibition; Microcolony formation; Rippled; Small polyps; Thick; W: Halo formation on top, microlonies on bottom; note: test concentration or dose not given here
S. pneumoniae = test: as above; format: cell-based, Streptococcus pneumoniae; set-up: key: A: Peptide aggregates; B: Less hyphal formation; Clumps; Diffuse clumps and small polyps; F: Diffuse growth; H: Thin; I: Growth inhibition; Microcolony formation; Rippled; Small polyps; Thick; W: Halo formation on top, microlonies on bottom
P. aeruginosa = test: as above; format: cell-based, Pseudomonas aeruginosa; set-up: key: A: Peptide aggregates; B: Less hyphal formation; Clumps; Diffuse clumps and small polyps; F: Diffuse growth; H: Thin; I: Growth inhibition; Microcolony formation; Rippled; Small polyps; Thick; W: Halo formation on top, microlonies on bottom
S. epidermidis = test: as above; format: cell-based, Staphylococcus epidermidis; set-up: key: A: Peptide aggregates; B: Less hyphal formation; Clumps; Diffuse clumps and small polyps; F: Diffuse growth; H: Thin; I: Growth inhibition; Microcolony formation; Rippled; Small polyps; Thick; W: Halo formation on top, microlonies on bottom; note: test concentration or dose not given here
E. faecalis = test: as above; format: cell-based, Enterococcus faecalis; set-up: key: A: Peptide aggregates; B: Less hyphal formation; Clumps; Diffuse clumps and small polyps; F: Diffuse growth; H: Thin; I: Growth inhibition; Microcolony formation; Rippled; Small polyps; Thick; W: Halo formation on top, microlonies on bottom; note: test concentration or dose not given here
MRSA = test: as above; format: cell-based, Methicillin-resistant Staphylococcus aureus; set-up: key: A: Peptide aggregates; B: Less hyphal formation; Clumps; Diffuse clumps and small polyps; F: Diffuse growth; H: Thin; I: Growth inhibition; Microcolony formation; Rippled; Small polyps; Thick; W: Halo formation on top, microlonies on bottom; note: test concentration or dose not given here
microorganisms = test: Peptides having multiple activities (targeting/binding, antimicrobial, growth or phenotype altering)
Excerpt: In certain embodiments, peptides described herein can have multiple activities. Thus for example, a peptide can have both binding/targeting activity and antimicrobial activity. Such peptides can be used, e.g., in a chimeric construct, for any or all of these properties. Thus, for example, a peptide designated “B” in Table 8 can be used as a targeting peptide. If it is also designated G or M it can also be used for antimicrobial activity.

C. jejuni = test: Kill or inhibit growth/proliferation; morphology, biofilm and growth disruption (Tables 5, 6); format: cell-based, Campylobacter jejuni; set-up: key: A: Peptide aggregates; B: Less hyphal formation; Clumps; Diffuse clumps and small polyps; F: Diffuse growth; H: Thin; I: Growth inhibition; Microcolony formation; Rippled; Small polyps; Thick; W: Halo formation on top, microlonies on bottom; note: test concentration or dose not given here
C. jeikeium = test: as above; format: cell-based, Corynebacterium jeikeium; set-up: key: A: Peptide aggregates; B: Less hyphal formation; Clumps; Diffuse clumps and small polyps; F: Diffuse growth; H: Thin; I: Growth inhibition; Microcolony formation; Rippled; Small polyps; Thick; W: Halo formation on top, microlonies on bottom; note: test concentration or dose not given here
[1] = system: microorganisms (e.g., bacteria, yeasts, fungi); test: Targeting peptide binding to target microorganisms (Table 3); conditions: microorganism(s) the targeting peptide binds, preferably 1x PBS
B. subtilis = test: Kill or inhibit growth/proliferation; morphology, biofilm and growth disruption (Tables 5, 6); format: cell-based, Bacillus subtilis; set-up: key: A: Peptide aggregates; B: Less hyphal formation; Clumps; Diffuse clumps and small polyps; F: Diffuse growth; H: Thin; I: Growth inhibition; Microcolony formation; Rippled; Small polyps; Thick; W: Halo formation on top, microlonies on bottom; note: test concentration or dose not given here
M. luteus = test: as above; format: cell-based, Micrococcus luteus; set-up: key: A: Peptide aggregates; B: Less hyphal formation; Clumps; Diffuse clumps and small polyps; F: Diffuse growth; H: Thin; I: Growth inhibition; Microcolony formation; Rippled; Small polyps; Thick; W: Halo formation on top, microlonies on bottom; note: test concentration or dose not given here
[2] = binding in aqueous buffers depending on peptide solubility
Throughout, for Organism, effect: test concentration or dose not given here.

| Substance | Organism, effect (E. coli) | Organism, effect (S. pneumoniae) | Organism, effect (P. aeruginosa) | Organism, effect (S. epidermidis) | Organism, effect (E. faecalis) | Organism, effect (MRSA) | Activities (microorganisms) | Organism, effect (C. jejuni) | Organism, effect (C. jeikeium) | Target(s) ([1]; peptide binding conducted in aqueous buffers varied by peptide solubility) | Organism, effect (B. subtilis) | Organism, effect (M. luteus) | Target(s) [1, 2] |
| --- | --- | --- | --- | --- | --- | --- | --- | --- | --- | --- | --- | --- | --- |
| ALCSVIKAIELGIINVHLQ [PF-366] | E. coli (C) | S. pneumoniae (C) | P. aeruginosa (A) | S. epidermidis (R) | E. faecalis (C) | MRSA (D) | G B | C. jejuni (D) | – | – | – | – | – |
| LNFRAENKILEKIHISLIDTVEGSA [PF-575] | – | S. pneumoniae (A) | P. aeruginosa (A) | – | – | – | G B | C. jejuni (R) | C. jeikeium (A) | M. luteus and E. coli and C. albicans and MRSA and S. pneumoniae and E. faecalis and C. jeikeium | – | – | – |
| PF-063: peptide having multiple activities (chain 1 IAAIIVLVLFQKGLLQIFNWILIQLQ; chain 2 IAAIIVLVLFQKGLLQIFNWILIQLQ; Peptide with targeting and/or antimicrobial activity) | – | S. pneumoniae (D) | P. aeruginosa (A) | S. epidermidis (R) | – | MRSA (M) | G B | C. jejuni (D) | C. jeikeium (D) | – | B. subtilis (C) | M. luteus (R) | – |
| PF-067: peptide having multiple activities (DLIVKVHICFVVKTASGYCYLNKREAQAAI; Peptide with targeting and/or antimicrobial activity) | – | S. pneumoniae (D) | P. aeruginosa (A) | S. epidermidis (D) | – | MRSA (M) | G B | C. jejuni (D) | C. jeikeium (D) | – | B. subtilis (C) | M. luteus (R) | – |
| PF-128: peptide having multiple activities (GIKVVAARFEEIQFSENFDSIILA; Peptide with targeting and/or antimicrobial activity) | – | – | P. aeruginosa (C) | S. epidermidis (D) | – | – | G B | – | – | – | – | – | M. luteus; also recorded: P. aeruginosa; also recorded: E. faecalis |
| PF-204: peptide having multiple activities (ALQKQDMNLPSVKNQLVFLKSTG; Peptide with targeting and/or antimicrobial activity) | – | – | P. aeruginosa (H) | S. epidermidis (C) | – | – | G B | – | C. jeikeium (D) | – | – | M. luteus (C) | S. epidermidis; also recorded: P. mirabilis; also recorded: E. coli; also recorded: P. aeruginosa; also recorded: C. albicans; also recorded: C. jejuni |
| PF-355: peptide having multiple activities (chain 1 WIAIGLLLYFSLKNQ; chain 2 WIAIGLLLYFSLKNQ; Peptide with targeting and/or antimicrobial activity) | E. coli (C) | S. pneumoniae (D) | P. aeruginosa (A) | S. epidermidis (C) | E. faecalis (D) | MRSA (A) | G B | C. jejuni (D) | – | – | – | – | – |
| PF-356: peptide having multiple activities (chain 1 VSIKIGAIVIGMIGLMELLTE; chain 2 VSIKIGAIVIGMIGLMELLTE; Peptide with targeting and/or antimicrobial activity) | – | S. pneumoniae (R) | P. aeruginosa (A) | S. epidermidis (S) | E. faecalis (R) | MRSA (C) | G B | C. jejuni (D) | – | – | – | – | – |
| PF-380: peptide having multiple activities (chain 1 KKIIPLITLFVVTLVG; chain 2 KKIIPLITLFVVTLVG; Peptide with targeting and/or antimicrobial activity) | E. coli (C) | S. pneumoniae (D) | P. aeruginosa (A) | S. epidermidis (C) | E. faecalis (C) | MRSA (D) | G B | C. jejuni (D) | – | – | – | – | – |
| PF-411: peptide having multiple activities (WVAVAILLNIALQTQLT; Peptide with targeting and/or antimicrobial activity) | E. coli (C) | S. pneumoniae (D) | P. aeruginosa (A) | S. epidermidis (C) | E. faecalis (D) | MRSA (D) | G B | C. jejuni (D) | – | – | – | – | – |
| PF-432: peptide having multiple activities (FNGDSEFFLCIAF; Peptide with targeting and/or antimicrobial activity) | E. coli (R) | S. pneumoniae (D) | P. aeruginosa (A) | S. epidermidis (M) | E. faecalis (D) | MRSA (M) | G B | C. jejuni (D) | – | – | – | – | – |
| PF-454: peptide having multiple activities (chain 1 MSVFVPVTNIFMFIMSPIFNVNLLHFKVYI; chain 2 MSVFVPVTNIFMFIMSPIFNVNLLHFKVYI; Peptide with targeting and/or antimicrobial activity) | E. coli (R) | S. pneumoniae (R) | P. aeruginosa (H) | S. epidermidis (C) | E. faecalis (C) | MRSA (C) | G B | – | – | – | – | – | – |
| PF-536 (MEPIPHIMIIANQIGIIIEKA; Peptide with targeting and/or antimicrobial activity) | E. coli (R) | S. pneumoniae (M) | P. aeruginosa (H) | S. epidermidis (C) | E. faecalis (C) | MRSA (C) | – | – | – | – | – | – | – |
| PF-577: peptide having multiple activities (chain 1 PFETRESFRVPVIGILGGWDYFMHP; chain 2 PFETRESFRVPVIGILGGWDYFMHP; Peptide with targeting and/or antimicrobial activity) | E. coli (A) | S. pneumoniae (R) | P. aeruginosa (A) | S. epidermidis (A) | E. faecalis (A) | MRSA (M) | G B | C. jejuni (R) | – | – | – | – | – |
